Data from article PMC4659708 (Nature, 2015).

Columns and labels:
[1] = molecular target: T1, α1 glycine receptor (GlyREM) (Danio rerio, UniProt O93430, DEL334-400/INS333AGT); test: TEVC in Xenopus oocytes, agonist activation; assay type: cell-based
T1 sequence (O93430 with tags, fused parts or gaps INS333AGT/DEL334-400): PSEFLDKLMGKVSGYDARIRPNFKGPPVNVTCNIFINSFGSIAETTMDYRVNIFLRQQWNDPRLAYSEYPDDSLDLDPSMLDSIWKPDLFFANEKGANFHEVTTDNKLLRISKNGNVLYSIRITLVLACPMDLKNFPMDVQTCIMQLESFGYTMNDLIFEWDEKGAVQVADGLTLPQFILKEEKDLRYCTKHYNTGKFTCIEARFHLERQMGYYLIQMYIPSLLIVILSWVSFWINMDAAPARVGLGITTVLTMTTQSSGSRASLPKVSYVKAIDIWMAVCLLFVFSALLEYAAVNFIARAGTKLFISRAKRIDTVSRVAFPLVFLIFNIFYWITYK

[2] = molecular target: T1, α1 glycine receptor (GlyREM); test: TEVC in Xenopus oocytes, block of glycine current at […]; assay type: cell-based; conditions: read-out: % inhibition at 1 mM

| SMILES | EC50 [1] [µM] | inhibition at 1000 µM [2] [%] |
| --- | --- | --- |
| NCC(=O)O [gly, glycine] | 260 |  |
| C=C(C)[C@@H]1[C@H]2OC(=O)[C@@H]1[C@]1(O)C[C@H]3O[C@]34C(=O)O[C@H]2[C@]14C [ptx, picrotoxinin] |  | ~80 |
